pIC50: −log10 of the molar value.

The target of this assay is T1, Prostaglandin G/H synthase 2 (Mus musculus, UniProt Q05769).
T1 sequence (Q05769 whole entry): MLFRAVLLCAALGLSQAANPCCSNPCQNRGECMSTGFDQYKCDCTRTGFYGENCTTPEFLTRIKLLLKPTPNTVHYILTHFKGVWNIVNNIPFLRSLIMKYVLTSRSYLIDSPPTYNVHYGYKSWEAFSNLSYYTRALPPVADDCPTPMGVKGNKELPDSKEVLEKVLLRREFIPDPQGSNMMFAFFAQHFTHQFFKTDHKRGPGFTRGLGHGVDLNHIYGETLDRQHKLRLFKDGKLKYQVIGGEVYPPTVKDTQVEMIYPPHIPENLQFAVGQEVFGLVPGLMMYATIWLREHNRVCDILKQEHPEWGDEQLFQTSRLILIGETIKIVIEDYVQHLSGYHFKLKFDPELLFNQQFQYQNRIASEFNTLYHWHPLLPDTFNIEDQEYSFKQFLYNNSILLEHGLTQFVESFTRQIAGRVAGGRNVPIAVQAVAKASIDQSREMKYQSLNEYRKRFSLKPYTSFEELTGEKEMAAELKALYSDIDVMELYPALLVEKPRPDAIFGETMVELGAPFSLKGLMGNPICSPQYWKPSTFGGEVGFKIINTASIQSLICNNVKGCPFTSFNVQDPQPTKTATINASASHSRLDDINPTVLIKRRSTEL
In words: Inhibition of mouse macrophage COX2.
The term pIC50 denotes −log10 of the IC50, conventionally taken in molar units. As to `Cc1ccc(-c2[nH]c(-c3ccc(C)cc3)c3c2CCCC3)cc1`, the pIC50 was 7.78.

`CS(=O)(=O)c1ccc(-c2[nH]c(-c3ccc(S(C)(=O)=O)cc3)c3c2C2CCC3C2)cc1` gave a negative-log IC50 (pIC50) of 5.00.

`CC1=C(C)Cc2c(c(-c3ccccc3)n(C)c2-c2ccccc2)C1` had a negative-log IC50 (pIC50) of 6.00.

Source of the values: ChEMBL document CHEMBL1141670, “QSAR analysis of 1,3-diaryl-4,5,6,7-tetrahydro-2H-isoindole derivatives as selective COX-2 inhibitors” (Eur J Med Chem, 2008).
